This passage reports T/C results from PubChem BioAssay AID330 (DTP/NCI, 2004).

Where “and” joins values, the source holds several entries; their conditions need not be identical. Identical values can stand only once. Toxic doses and inconclusive results are not listed.

This test concerns P388 leukemia ip, CD2F1 mice, survival T/C. In words: NCI In Vivo Anticancer Drug Screen. Data for tumor model P388 Leukemia (intraperitoneal) in CD2F1 (CDF1) mice. Particulars: endpoint: median survival time, higher = longer survival. Put shortly: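 Mice carrying the transplanted tumor received test compound or vehicle. Survival was recorded in each group, and the value is the treated-group measurement divided by that of the vehicle-treated control group.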

The mark [1] stands for this setting: dose: 50.0 mg/kg/injection, schedule: Q01DX005 (ip), vehicle: saline with Tween-80.
Setting [2] is: dose: 50.0 mg/kg/injection, schedule: Q01DX005 (ip), vehicle: saline.
[3] abbreviates: dose: 50.0 mg/kg/injection, schedule: Q01DX009 (ip), vehicle: Klucel (hydroxypropylcellulose) (HPC).
Where [4] appears, read: dose: 100.0 mg/kg/injection, schedule: Q01DX009 (ip), vehicle: Klucel (hydroxypropylcellulose) (HPC).
The mark [5] stands for this setting: dose: 100.0 mg/kg/injection, schedule: Q01DX005 (ip), vehicle: saline with Tween-80.
Setting [6] is: dose: 200.0 mg/kg/injection, schedule: Q01DX005 (ip), vehicle: saline with Tween-80.
Setting [7] is: dose: 50.0 mg/kg/injection, schedule: Q01DX009 (ip), vehicle: saline with Tween-80.
Setting [8] is: dose: 100.0 mg/kg/injection, schedule: Q01DX009 (ip), vehicle: saline with Tween-80.
Setting [9] is: dose: 100.0 mg/kg/injection, schedule: Q01DX001 (ip), vehicle: saline with Tween-80.
Setting [10] is: dose: 200.0 mg/kg/injection, schedule: Q01DX001 (ip), vehicle: saline with Tween-80.

On to `CCC(=O)c1cc2ccccc2c2ccccc12`, for which the T/C by setting is: (dose: 12.5 mg/kg/injection, schedule: Q01DX005 (ip), vehicle: saline) 96 % of control; (dose: 25.0 mg/kg/injection, schedule: Q01DX005 (ip), vehicle: saline) 100 % of control; under setting [1], 103 % of control; under setting [2], 100 % of control.

In the case of `O=C(NNC(=O)c1ccncc1)Nc1cccc(Cl)c1`, the T/C was 95 % of control under setting [3] and 96 % of control under setting [4].

Turning to `CN(C)CCC(=O)C(=C/C=C/c1ccccc1)C(=O)CCN(C)C`, the T/C is, setting by setting: (dose: 25.0 mg/kg/injection, schedule: Q01DX005 (ip), vehicle: saline with Tween-80) 100 % of control; under setting [1], 121 % of control; under setting [5], 123 % of control.

Regarding `Cc1ccc(C2SCC(=O)N2c2nncs2)s1` (stereo not drawn), the T/C runs as follows: under setting [1], 100 % of control; under setting [5], 92 % of control; under setting [6], 94 % of control.

On to `O=C(CI)NCCNc1cccc2c(S(=O)(=O)O)cccc12`, for which the T/C (dose: 25.0 mg/kg/injection, schedule: Q01DX009 (ip), vehicle: saline with Tween-80) is 102 % of control; the T/C under setting [7] was 100 % of control; the T/C under setting [8] was 110 % of control and 95 % of control.

Turning to `COc1ccc(COCc2ccc(OC)c(O)c2)cc1O`, the T/C is, setting by setting: under setting [7], 101 % of control; under setting [8], 99 % of control.

With `COc1ccc(/C=C/c2nc(Nc3ccc(O)c(CN4CCCCC4)c3)c3ccccc3n2)cc1`, the T/C (dose: 50.0 mg/kg/injection, schedule: Q01DX009 (ip), vehicle: distilled water + alcohol) is 99 % of control; the T/C (dose: 100.0 mg/kg/injection, schedule: Q01DX009 (ip), vehicle: distilled water + alcohol) is 100 % of control; the T/C (dose: 200.0 mg/kg/injection, schedule: Q01DX009 (ip), vehicle: distilled water + alcohol) was 91 % of control.

Take `COc1ccc(CN2CCC[S+]2C)cc1` (stereo not drawn): the T/C under setting [2] was 95 % of control.

For the compound `O=c1c2cc(O)ccc2oc2cc(O)cc(O)c12`, the T/C was 104 % of control (dose: 10.0 mg/kg/injection, schedule: Q01DX009 (ip), vehicle: saline); 111 % of control (dose: 20.0 mg/kg/injection, schedule: Q01DX009 (ip), vehicle: saline); 111 % of control (dose: 40.0 mg/kg/injection, schedule: Q01DX009 (ip), vehicle: saline); 105 % of control (dose: 80.0 mg/kg/injection, schedule: Q01DX009 (ip), vehicle: saline).

Turning to `CCCCNC=C1C(=O)Nc2ccccc2NC1=O`, the T/C reads like this: (dose: 60.0 mg/kg/injection, schedule: Q01DX005 (ip), vehicle: Klucel (hydroxypropylcellulose) (HPC)) 98 % of control; (dose: 120.0 mg/kg/injection, schedule: Q01DX005 (ip), vehicle: Klucel (hydroxypropylcellulose) (HPC)) 92 % of control; (dose: 240.0 mg/kg/injection, schedule: Q01DX005 (ip), vehicle: Klucel (hydroxypropylcellulose) (HPC)) 91 % of control.

For `O=[N+]([O-])c1ccc(COc2ccccc2)cc1`, the T/C by setting is: (dose: 100.0 mg/kg/injection, schedule: Q01DX001 (ip), vehicle: saline) 104 % of control; (dose: 200.0 mg/kg/injection, schedule: Q01DX001 (ip), vehicle: saline) 113 % of control; (dose: 400.0 mg/kg/injection, schedule: Q01DX001 (ip), vehicle: saline) 124 % of control.

Turning to `S=C([S][Sn]([c]1ccccc1)([c]1ccccc1)[c]1ccccc1)N1CCOCC1`, the T/C is 100 % of control (dose: 1.56 mg/kg/injection, schedule: Q01DX009 (ip), vehicle: saline with Tween-80); 100 % of control and 103 % of control and 109 % of control (dose: 3.13 mg/kg/injection, schedule: Q01DX009 (ip), vehicle: saline with Tween-80); 107 % of control and 108 % of control (dose: 6.25 mg/kg/injection, schedule: Q01DX009 (ip), vehicle: saline with Tween-80); 105 % of control (dose: 12.5 mg/kg/injection, schedule: Q01DX009 (ip), vehicle: saline with Tween-80).

For the compound `O=C(NC(=O)c1cccc2ccccc12)NC(=S)c1ccc(Br)cc1`, the T/C reads like this: (dose: 12.5 mg/kg/injection, schedule: Q01DX001 (ip), vehicle: saline) 101 % of control; (dose: 25.0 mg/kg/injection, schedule: Q01DX001 (ip), vehicle: saline) 101 % of control; (dose: 50.0 mg/kg/injection, schedule: Q01DX001 (ip), vehicle: saline) 101 % of control.

In the case of `CCOC(=O)Nc1cc(NC/C(=N/O)c2ccc([N+](=O)[O-])cc2)c([N+](=O)[O-])c(N)n1`, the T/C was 92 % of control (dose: 50.0 mg/kg/injection, schedule: Q01DX001 (ip), vehicle: saline with Tween-80); 92 % of control under setting [9]; 89 % of control under setting [10].

Regarding `Cc1c2cc[n+](C)cc2c(C)c2c1[nH]c1ccc(O)cc12`, the T/C reads like this: (dose: 0.25 mg/kg/injection, schedule: Q04DX003 (ip), vehicle: water) 115 % of control; (dose: 0.25 mg/kg/injection, schedule: Q04DX003 (iv), vehicle: water) 94 % of control; (dose: 0.5 mg/kg/injection, schedule: Q04DX003 (iv), vehicle: water) 93 % of control; (dose: 0.78 mg/kg/injection, schedule: Q04DX003 (ip), vehicle: saline) 152 % of control; (dose: 1.0 mg/kg/injection, schedule: Q04DX003 (ip), vehicle: water) 151 % of control; (dose: 1.0 mg/kg/injection, schedule: Q04DX003 (iv), vehicle: water) 100 % of control. In addition, the T/C was 164 % of control (dose: 1.56 mg/kg/injection, schedule: Q04DX003 (ip), vehicle: saline); 152 % of control and 161 % of control (dose: 2.0 mg/kg/injection, schedule: Q04DX003 (ip), vehicle: water); 111 % of control (dose: 2.0 mg/kg/injection, schedule: Q04DX003 (iv), vehicle: water); 172 % of control (dose: 3.12 mg/kg/injection, schedule: Q04DX003 (ip), vehicle: saline); 176 % of control (dose: 3.6 mg/kg/injection, schedule: Q04DX002 (ip), vehicle: saline); 99 % of control (dose: 4.0 mg/kg/injection, schedule: Q04DX003 (iv), vehicle: water). Besides, the T/C runs as follows: (dose: 4.5 mg/kg/injection, schedule: Q04DX002 (ip), vehicle: saline) 151 % of control; (dose: 6.0 mg/kg/injection, schedule: Q04DX002 (ip), vehicle: saline) 188 % of control; (dose: 6.25 mg/kg/injection, schedule: Q04DX003 (ip), vehicle: saline) 150 % of control; (dose: 7.5 mg/kg/injection, schedule: Q04DX002 (ip), vehicle: saline) 94 % of control; (dose: 12.5 mg/kg/injection, schedule: Q04DX003 (ip), vehicle: saline) 170 % of control; (dose: 50.0 mg/kg/injection, schedule: Q04DX003 (ip), vehicle: saline) 93 % of control. Besides, the T/C (dose: 100.0 mg/kg/injection, schedule: Q04DX003 (ip), vehicle: saline) is 94 % of control.

In the case of `CCOC(=O)C1(CN(C)c2ccccc2)C(C(C)=O)=CNc2c(C#N)cnn21` (stereo not drawn), the T/C is 99 % of control under setting [1], 98 % of control under setting [5] and 106 % of control under setting [6].

Take `CCOC(=O)/C=C1/SC(N2CCCCC2)C(=O)N1CC` (stereo not drawn): the T/C reads like this: under setting [3], 106 % of control; under setting [4], 110 % of control; (dose: 200.0 mg/kg/injection, schedule: Q01DX009 (ip), vehicle: Klucel (hydroxypropylcellulose) (HPC)) 110 % of control.

As for `Cc1ccc(C)c2c1C(=O)c1c(C)ccc(C)c1C2(O)C#Cc1ccccc1`, the T/C is, setting by setting: under setting [7], 98 % of control; under setting [8], 89 % of control; (dose: 200.0 mg/kg/injection, schedule: Q01DX009 (ip), vehicle: saline with Tween-80) 89 % of control.

Take `Cc1c(-c2ccncc2)nc2ccccc2c1C(=O)O`: the T/C reads like this: under setting [1], 100 % of control; under setting [5], 100 % of control; under setting [6], 97 % of control.

Turning to `c1ccc2c(c1)[nH]c1c2c(N2CCOCC2)nn2nnnc12`, the T/C runs as follows: under setting [9], 107 % of control; under setting [10], 106 % of control; (dose: 400.0 mg/kg/injection, schedule: Q01DX001 (ip), vehicle: saline with Tween-80) 109 % of control.

Regarding `Fc1ccc(N=Cc2ccc(C=Nc3ccc(F)cc3)cc2)cc1`, the T/C (dose: 50.0 mg/kg/injection, schedule: Q01DX009 (ip), vehicle: saline) was 100 % of control; the T/C (dose: 100.0 mg/kg/injection, schedule: Q01DX009 (ip), vehicle: saline) is 100 % of control; the T/C (dose: 200.0 mg/kg/injection, schedule: Q01DX009 (ip), vehicle: saline) is 97 % of control.
